Drawing on patent publication US8623857B2, “N-phenyl imidazole carboxamide inhibitors of 3-phosphoinositide-dependent protein kinase-1” (Merck Sharp & Dohme Corp., priority 2010, dated 2014), this text covers IC50 for 21 compounds.

In one assay the target is T1, recombinant human PDK1 (Homo sapiens, UniProt O15530).
T1 construct: containing amino acids 51-556 of the human PDK1 enzyme; made in house; host or cells: Sf9 insect cells
T1 sequence (O15530 51-556): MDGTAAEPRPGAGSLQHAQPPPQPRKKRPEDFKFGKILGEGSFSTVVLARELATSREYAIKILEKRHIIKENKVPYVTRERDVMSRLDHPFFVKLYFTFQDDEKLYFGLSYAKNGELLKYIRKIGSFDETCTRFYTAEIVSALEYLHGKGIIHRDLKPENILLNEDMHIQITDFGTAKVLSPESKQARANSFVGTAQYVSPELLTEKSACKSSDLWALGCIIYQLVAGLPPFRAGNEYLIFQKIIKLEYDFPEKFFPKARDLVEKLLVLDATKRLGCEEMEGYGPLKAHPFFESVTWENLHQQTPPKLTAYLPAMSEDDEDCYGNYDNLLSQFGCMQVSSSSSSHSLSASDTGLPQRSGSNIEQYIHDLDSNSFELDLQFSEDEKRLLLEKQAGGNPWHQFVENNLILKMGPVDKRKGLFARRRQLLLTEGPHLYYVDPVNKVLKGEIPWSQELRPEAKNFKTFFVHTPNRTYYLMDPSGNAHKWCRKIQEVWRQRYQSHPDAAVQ
The assay is described as follows: PDK1 IMAP fluorescence polarization assay (inhibition of peptide substrate phosphorylation). The following applies: Table 6; 10 nM PDK1 enzyme, 100 nM peptide substrate, 100 nM PIFtide, 2.5 uM ATP, 1.5 hours. It is filed as biochemical. In general terms: Polarisation of emitted light reports the rotation of a fluorescent probe.
As for `Cc1cc(-c2c[nH]c(C(=O)Nc3cccc(F)c3N3CCC(C(=O)NCCN)CC3)n2)ccn1` [Compound 83, N-(2-aminoethyl)-1-[2-fluoro-6-[[[4-(2-methyl-4-pyridinyl)-1H-imidazol-2-yl]carbonyl]amino]phenyl]-4-piperidinecarboxamide], the 50% inhibitory concentration (IC50) – broadly, the point on the concentration scale where inhibition reaches its midpoint – lay in the range of 51 to 250 nM.

With `NCC1CCN(c2c(F)cccc2NC(=O)c2nc(-c3cc(NCc4ccc(F)cc4)ncn3)c[nH]2)CC1` [Compound 73, N-[2-[4-(aminomethyl)-1-piperidinyl]-3-fluorophenyl]-4-[6-[[(4-fluorophenyl)methyl]amino]-4-pyrimidinyl]-1H-imidazole-2-carboxamide], the IC50 lay in the range of 51 to 250 nM.

Regarding `N[C@@H]1CCCN(c2c(F)cccc2NC(=O)c2nc(-c3cnn(Cc4cccnc4)c3)c[nH]2)C1` [Compound 13, N-[2-(3(R)-amino-1-piperidinyl)-3-fluorophenyl]-4-[1-(3-pyridinylmethyl)-1H-pyrazol-4-yl]-1H-imidazole-2-carboxamide], the IC50 lay in the range of 51 to 250 nM.

`Cc1cc(-c2c[nH]c(C(=O)Nc3cccc(F)c3N3CCC(C(=O)N4CCOC(CCO)C4)CC3)n2)ccn1` (stereo not drawn) [Compound 90, N-[3-fluoro-2-[4-[[2-(2-hydroxyethyl)-4-morpholinyl]carbonyl]-1-piperidinyl]phenyl]-4-(2-methyl-4-pyridinyl)-1H-imidazole-2-carboxamide]: the IC50 was in the range of 251 to 1000 nM.

Take `NCC1CCN(c2c(F)cccc2NC(=O)c2nc(-c3cc(C(F)(F)F)n[nH]3)c[nH]2)CC1` [Compound 48, N-[2-[4-(aminomethyl)-1-piperidinyl]-3-fluorophenyl]-4-[3-(trifluoromethyl)-1H-pyrazol-5-yl]-1H-imidazole-2-carboxamide]: the half-inhibitory concentration (IC50) was 251 to 1000 nM.

For the compound `Cc1cc(-c2c[nH]c(C(=O)Nc3cccc(F)c3N3CCC(C(=O)N4CC5CCC(C4)O5)CC3)n2)ccn1` [Compound 78, N-[3-fluoro-2-[4-(8-oxa-3-azabicyclo[3.2.1]oct-3-ylcarbonyl)-1-piperidinyl]phenyl]-4-(2-methyl-4-pyridinyl)-1H-imidazole-2-carboxamide], the half-inhibitory concentration (IC50) lay within 251 to 1000 nM.

With `N[C@@H]1CCCN(c2c(F)cccc2NC(=O)c2nc(-c3cnn(Cc4ccccc4)c3)c[nH]2)C1` [Compound 4, N-[2-(3(R)-amino-1-piperidinyl)-3-fluorophenyl]-4-[1-(phenylmethyl)-1H-pyrazol-4-yl]-1H-imidazole-2-carboxamide], the IC50 is 51 to 250 nM.

Turning to `Cc1cc(-c2c[nH]c(C(=O)Nc3cccc(F)c3N3CCC(C(=O)NCC4(N)CCCC4)CC3)n2)ccn1` [Compound 88, N-[(1-aminocyclopentyl)methyl]-1-[2-fluoro-6-[[[4-(2-methyl-4-pyridinyl)-1H-imidazol-2-yl]carbonyl]amino]phenyl]-4-piperidinecarboxamide], the IC50 is 51 to 250 nM.

For `Cc1cc(-c2c[nH]c(C(=O)Nc3cccc(F)c3N3CCC[C@@H](N)C3)n2)ccn1` [Compound 8, N-[2-(3(R)-amino-1-piperidinyl)-3-fluorophenyl]-4-(2-methyl-4-pyridinyl)-1H-imidazole-2-carboxamide], the IC50 fell in the range of 1 to 50 nM.

Take `Nc1ccc(N2CCC[C@@H](N)C2)c(NC(=O)c2nc(Br)c[nH]2)c1` [Compound 16, N-[5-amino-2-(3(R)-amino-1-piperidinyl)phenyl]-4-bromo-1H-imidazole-2-carboxamide]: the 50% inhibitory concentration (IC50) is 51 to 250 nM.

`Cc1cc(-c2c[nH]c(C(=O)Nc3cccc(F)c3N3CCC(C(=O)NCC(O)C(F)(F)F)CC3)n2)ccn1` (stereo not drawn) [Compound 62, 1-[2-fluoro-6-[[[4-(2-methyl-4-pyridinyl)-1H-imidazol-2-yl]carbonyl]amino]phenyl]-N-(3,3,3-trifluoro-2-hydroxypropyl)-4-piperidinecarboxamide]: the IC50 lay in the range of 1000 to 5000 nM.

`NCC1CCN(c2c(F)cccc2NC(=O)c2nc(-c3cc(C(N)=O)nc(O)n3)c[nH]2)CC1` [Compound 68, 6-[2-[[[2-[4-(aminomethyl)-1-piperidinyl]-3-fluorophenyl]amino]carbonyl]-1H-imidazol-4-yl]-2-hydroxy-4-pyrimidinecarboxamide]: the IC50 fell in the range of 1 to 50 nM.

Consider `Nc1ccc(N2CCC[C@@H](N)C2)c(NC(=O)c2ncc[nH]2)c1` [Compound 1, N-[5-amino-2-(3(R)-amino-1-piperidinyl)phenyl]-1H-imidazole-2-carboxamide], for which the IC50 is 51 to 250 nM.

For `CC(=O)Nc1cc(-c2c[nH]c(C(=O)Nc3cccc(F)c3N3CCC(CN)CC3)n2)ccn1` [Compound 33, 4-[2-(acetylamino)-4-pyridinyl]-N-[2-[4-(aminomethyl)-1-piperidinyl]-3-fluorophenyl]-1H-imidazole-2-carboxamide], the IC50 fell in the range of 51 to 250 nM.

Turning to `Nc1cc(-c2c[nH]c(C(=O)Nc3cccc(F)c3N3CCC[C@@H](N)C3)n2)ccn1` [Compound 20, N-[2-(−3(R)-amino-1-piperidinyl)-3-fluorophenyl]-4-(2-amino-4-pyridinyl)-1H-imidazole-2-carboxamide], the IC50 was in the range of 1 to 50 nM.

Turning to `NCC1CCN(c2c(F)cccc2NC(=O)c2nc(-c3cc(NCc4ccc(F)c(F)c4)ncn3)c[nH]2)CC1` [Compound 74, N-[2-[4-(aminomethyl)-1-piperidinyl]-3-fluorophenyl]-4-[6-[[(3,4-difluorophenyl)methyl]amino]-4-pyrimidinyl]-1H-imidazole-2-carboxamide], the IC50 lay within 51 to 250 nM.

Staying with this assay, now noted: Table 10; compounds 97-132.
Regarding `Cc1cc(-c2c[nH]c(C(=O)Nc3cccc(F)c3N3CCC[C@@H](N)C3)n2)cc(Cl)n1` [Compound 98, (R)—N-(2-(3-aminopiperidin-1-yl)-3-fluorophenyl)-4-(2-chloro-6-methylpyridin-4-yl)-1H-imidazole-2-carboxamide], the half-maximal inhibitory concentration (IC50) was 251 to 1000 nM.

As for `CNc1nc(-c2c[nH]c(C(=O)Nc3cccc(F)c3N3CCC[C@@H](N)C3)n2)cc(N2CC(C(=O)NC3CCCCC3)CCC2C)n1` (mixture of isomers) [Compound 114, 1-(6-(2-(2-((R)-3-aminopiperidin-1-yl)-3-fluorophenylcarbamoyl)-1H-imidazol-4-yl)-2-(methylamino)pyrimidin-4-yl)-N-cyclohexyl-6-methylpiperidine-3-carboxamide], the IC50 is 1 to 50 nM.

Regarding `CNc1nc(-c2c[nH]c(C(=O)Nc3ccccc3N3CCNCC3)n2)cc(N2CC(C(=O)NC3CCCCC3)CCC2C)n1` (racemic) [Compound 102, N-cyclohexyl-6-methyl-1-(2-(methylamino)-6-(2-(2-(piperazin-1-yl)phenylcarbamoyl)-1H-imidazol-4-yl)pyrimidin-4-yl)piperidine-3-carboxamide], the concentration for half-maximal inhibition (IC50) lay within 1 to 50 nM.

Regarding `NCC1CCN(c2c(F)cccc2NC(=O)c2nc(-c3ccc(=O)n(C(F)F)c3)c[nH]2)CC1` [Compound 97, N-(2-(4-(aminomethyl)piperidin-1-yl)-3-fluorophenyl)-4-(1-(difluoromethyl)-6-oxo-1,6-dihydropyridin-3-yl)-1H-imidazole-2-carboxamide], the IC50 lay within 51 to 250 nM.

`CNc1nc(-c2c[nH]c(C(=O)Nc3cccc(F)c3N3CCC(CN)CC3)n2)cc(N2CCC[C@@H](N)C2)n1` [Compound 126, (R)—N-(2-(4-(aminomethyl)piperidin-1-yl)-3-fluorophenyl)-4-(6-(3-aminopiperidin-1-yl)-2-(methylamino)pyrimidin-4-yl)-1H-imidazole-2-carboxamide]: the half-inhibitory concentration (IC50) was in the range of 1 to 50 nM.
